From PubChem BioAssay AID2060490 (Molecular Pharmacology Branch, DTP, NCI, 2025)

Tested on: 885512-296-R-J2-PDC complex spheroid viability
Experiment: Anticancer human tumor 885512-296-R-J2-PDC patient-derived breast carcinoma cell line growth inhibition [GQUAD]
Conditions: for IC50: curve of first compound; for viability, T/C: stronger effect = lower value
Summary of the method: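 Tumor cells were grown as complex spheroids with HUVEC endothelial cells and mesenchymal stem cells as stroma. G-quadruplex stabilizers were combined with targeted agents over half-log dilutions from near the clinical Cmax, or from 10 microM.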

[1] = second compound 0.0316 µM, first compound 0.0316 µM
[2] = second compound 0.0316 µM, first compound 0.1 µM
[3] = second compound 0.0316 µM, first compound 0.316 µM
[4] = second compound 0.0316 µM, first compound 1 µM
[5] = second compound 0.0316 µM, first compound 3.16 µM
[6] = second compound 0.0316 µM, first compound 10 µM
[7] = second compound 0.1 µM, first compound 0.0316 µM
[8] = second compound 0.1 µM, first compound 0.1 µM
[9] = second compound 0.1 µM, first compound 0.316 µM
[10] = second compound 0.1 µM, first compound 1 µM
[11] = second compound 0.1 µM, first compound 3.16 µM
[12] = second compound 0.1 µM, first compound 10 µM
[13] = second compound 0.316 µM, first compound 0.0316 µM
[14] = second compound 0.316 µM, first compound 0.1 µM
[15] = second compound 0.316 µM, first compound 0.316 µM
[16] = second compound 0.316 µM, first compound 1 µM
[17] = second compound 0.316 µM, first compound 3.16 µM
[18] = second compound 0.316 µM, first compound 10 µM
[19] = second compound 1 µM, first compound 0.0316 µM
[20] = second compound 1 µM, first compound 0.1 µM
[21] = second compound 1 µM, first compound 0.316 µM
[22] = second compound 1 µM, first compound 1 µM
[23] = second compound 1 µM, first compound 3.16 µM
[24] = second compound 1 µM, first compound 10 µM
[25] = second compound 3.16 µM, first compound 0.0316 µM
[26] = second compound 3.16 µM, first compound 0.1 µM
[27] = second compound 3.16 µM, first compound 0.316 µM
[28] = second compound 3.16 µM, first compound 1 µM
[29] = second compound 3.16 µM, first compound 3.16 µM
[30] = second compound 3.16 µM, first compound 10 µM
[31] = second compound 10 µM, first compound 0.0316 µM
[32] = second compound 10 µM, first compound 0.1 µM
[33] = second compound 10 µM, first compound 0.316 µM
[34] = second compound 10 µM, first compound 1 µM
[35] = second compound 10 µM, first compound 3.16 µM
[36] = second compound 10 µM, first compound 10 µM
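Also: spheroids exposed to the compounds for one week.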
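For viability, T/C in this document: percent of tumor spheroid viability relative to DMSO vehicle control wells.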

Cc1cccc(N(C)C(=O)C2C(O)CCN2c2nc(C)cc(C(F)(F)F)c2C#N)c1 (stereo unspecified) + CN(C)c1ccc(Nc2c3ccc(NC(=O)CCN4CCCC4)cc3nc3cc(NC(=O)CCN4CCCC4)ccc23)cc1
IC50 (second compound 0.0316 µM): > 10000 nM | IC50 (second compound 0.1 µM): > 10000 nM | IC50 (second compound 0.316 µM): > 10000 nM | IC50 (second compound 1 µM): > 10000 nM | IC50 (second compound 3.16 µM): > 10000 nM | IC50 (second compound 10 µM): < 31.6 nM | viability, T/C [1]: 101% | viability, T/C [2]: 89.8% | viability, T/C [3]: 106% | viability, T/C [4]: 102% | viability, T/C [5]: 113% | viability, T/C [6]: 97.7% | viability, T/C [7]: 110% | viability, T/C [8]: 106% | viability, T/C [9]: 102% | viability, T/C [10]: 87.3% | viability, T/C [11]: 104% | viability, T/C [12]: 91.7% | viability, T/C [13]: 111% | viability, T/C [14]: 99.6% | viability, T/C [15]: 106% | viability, T/C [16]: 97.8% | viability, T/C [17]: 101% | viability, T/C [18]: 96.8% | viability, T/C [19]: 88.5% | viability, T/C [20]: 105% | viability, T/C [21]: 95.1% | viability, T/C [22]: 93.2% | viability, T/C [23]: 84.6% | viability, T/C [24]: 80.8% | viability, T/C [25]: 94.8% | viability, T/C [26]: 96.5% | viability, T/C [27]: 108% | viability, T/C [28]: 86.8% | viability, T/C [29]: 96.2% | viability, T/C [30]: 62.2% | viability, T/C [31]: 23.6% | viability, T/C [32]: 22.4% | viability, T/C [33]: 18.6% | viability, T/C [34]: 19.3% | viability, T/C [35]: 15.8% | viability, T/C [36]: 5.88%

Cn1ncnc1[C@H]1c2n[nH]c(=O)c3cc(F)cc(c23)N[C@@H]1c1ccc(F)cc1 + CN(C)c1ccc(Nc2c3ccc(NC(=O)CCN4CCCC4)cc3nc3cc(NC(=O)CCN4CCCC4)ccc23)cc1
IC50 (second compound 0.0316 µM): 208 nM | IC50 (second compound 0.1 µM): > 316 nM | IC50 (second compound 0.316 µM): 215 nM | IC50 (second compound 1 µM): 195 nM | IC50 (second compound 3.16 µM): 74 nM | IC50 (second compound 10 µM): < 0.999 nM | viability, T/C (second compound 0.0316 µM, first compound 0.000999 µM): 90% | viability, T/C (second compound 0.0316 µM, first compound 0.00316 µM): 96.1% | viability, T/C (second compound 0.0316 µM, first compound 0.00999 µM): 91.3% | viability, T/C [1]: 90.5% | viability, T/C (second compound 0.0316 µM, first compound 0.0999 µM): 64.3% | viability, T/C [3]: 41.9% | viability, T/C (second compound 0.1 µM, first compound 0.000999 µM): 112% | viability, T/C (second compound 0.1 µM, first compound 0.00316 µM): 91.8% | viability, T/C (second compound 0.1 µM, first compound 0.00999 µM): 99.3% | viability, T/C [7]: 75.9% | viability, T/C (second compound 0.1 µM, first compound 0.0999 µM): 71.6% | viability, T/C [9]: 53.9% | viability, T/C (second compound 0.316 µM, first compound 0.000999 µM): 112% | viability, T/C (second compound 0.316 µM, first compound 0.00316 µM): 101% | viability, T/C (second compound 0.316 µM, first compound 0.00999 µM): 94.4% | viability, T/C [13]: 79.5% | viability, T/C (second compound 0.316 µM, first compound 0.0999 µM): 61.5% | viability, T/C [15]: 44% | viability, T/C (second compound 1 µM, first compound 0.000999 µM): 96.8% | viability, T/C (second compound 1 µM, first compound 0.00316 µM): 94% | viability, T/C (second compound 1 µM, first compound 0.00999 µM): 90.4% | viability, T/C [19]: 81.4% | viability, T/C (second compound 1 µM, first compound 0.0999 µM): 57.8% | viability, T/C [21]: 44.2% | viability, T/C (second compound 3.16 µM, first compound 0.000999 µM): 95.2% | viability, T/C (second compound 3.16 µM, first compound 0.00316 µM): 96.9% | viability, T/C (second compound 3.16 µM, first compound 0.00999 µM): 93.8% | viability, T/C [25]: 64.7% | viability, T/C (second compound 3.16 µM, first compound 0.0999 µM): 47.8% | viability, T/C [27]: 36% | viability, T/C (second compound 10 µM, first compound 0.000999 µM): 18.6% | viability, T/C (second compound 10 µM, first compound 0.00316 µM): 23% | viability, T/C (second compound 10 µM, first compound 0.00999 µM): 25% | viability, T/C [31]: 20.3% | viability, T/C (second compound 10 µM, first compound 0.0999 µM): 19.1% | viability, T/C [33]: 15.5%

O=c1[nH]cc(F)c(=O)[nH]1 + Cc1[nH]c2ccc(F)cc2c1-c1nc2c3cccnc3c3ncccc3c2[nH]1
IC50 (second compound 0.0316 µM): > 10000 nM | IC50 (second compound 0.1 µM): > 10000 nM | IC50 (second compound 0.316 µM): > 10000 nM | IC50 (second compound 1 µM): > 10000 nM | IC50 (second compound 3.16 µM): < 31.6 nM | IC50 (second compound 10 µM): < 31.6 nM | viability, T/C [1]: 98.3% | viability, T/C [2]: 98.3% | viability, T/C [3]: 104% | viability, T/C [4]: 122% | viability, T/C [5]: 69.5% | viability, T/C [6]: 59.3% | viability, T/C [7]: 102% | viability, T/C [8]: 106% | viability, T/C [9]: 111% | viability, T/C [10]: 104% | viability, T/C [11]: 70.1% | viability, T/C [12]: 56.2% | viability, T/C [13]: 96.9% | viability, T/C [14]: 90.1% | viability, T/C [15]: 81.7% | viability, T/C [16]: 104% | viability, T/C [17]: 70.5% | viability, T/C [18]: 61.1% | viability, T/C [19]: 80.4% | viability, T/C [20]: 82.3% | viability, T/C [21]: 73.7% | viability, T/C [22]: 66.4% | viability, T/C [23]: 53.9% | viability, T/C [24]: 51.6% | viability, T/C [25]: 22% | viability, T/C [26]: 18.2% | viability, T/C [27]: 14.3% | viability, T/C [28]: 16.8% | viability, T/C [29]: 11.4% | viability, T/C [30]: 9.54% | viability, T/C [31]: 1.17% | viability, T/C [32]: 2.62% | viability, T/C [33]: 1.62% | viability, T/C [34]: 1.6% | viability, T/C [35]: 1.85% | viability, T/C [36]: 1.45%
